One series concerns the target T1, E-Selectin (Homo sapiens, UniProt P16581).
T1 sequence (P16581 22-556): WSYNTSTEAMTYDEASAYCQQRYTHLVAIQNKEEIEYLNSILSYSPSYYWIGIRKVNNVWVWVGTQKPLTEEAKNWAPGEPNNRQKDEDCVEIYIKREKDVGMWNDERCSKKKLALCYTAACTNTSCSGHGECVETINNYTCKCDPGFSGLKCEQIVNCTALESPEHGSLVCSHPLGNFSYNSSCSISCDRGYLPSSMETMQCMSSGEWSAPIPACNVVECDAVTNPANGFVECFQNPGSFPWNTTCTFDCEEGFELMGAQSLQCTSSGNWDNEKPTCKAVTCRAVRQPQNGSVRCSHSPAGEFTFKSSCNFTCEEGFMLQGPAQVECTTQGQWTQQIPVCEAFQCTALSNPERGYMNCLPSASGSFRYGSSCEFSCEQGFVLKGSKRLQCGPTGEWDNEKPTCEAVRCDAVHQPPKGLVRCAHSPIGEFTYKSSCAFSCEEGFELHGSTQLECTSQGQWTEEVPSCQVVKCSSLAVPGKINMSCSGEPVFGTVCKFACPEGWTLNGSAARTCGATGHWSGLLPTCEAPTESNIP
The series is described as follows: Inhibition of HL60 cell adhesion to soluble, recombinant E-selectin (E-selectin-IgG1 fusion protein). It counts as cell-based. The source says:
(§1) Carrying out these assays to measure the inhibitory activity of the compounds according to the invention on cell adhesion of promyelocytic cells by means of selecting is described in detail in European Published Application EP 0 601 417.
(§2) In order to test the efficacy of the carbohydrate conjugates on the interaction between the E- and P-selectins (former nomenclature ELAM-1 or GMP-140) with their ligands, an assay is used which in each case is specific only for one of these interactions. The ligands are supplied in their natural form as surface structures on promyelocytic HL60 cells. Since HL60 cells contain ligands and adhesion molecules of very different specificity, the desired specificity of the assay can only be produced by means of the binding component. The binding components used were genetically prepared soluble fusion proteins from the in each case extracytoplasmatic domains of E- or P-selectin and the constant region of a human immunoglobulin of the IgG1 subclass.
Preparation of L-selectin-IgG1
For the preparation of soluble L-selectin-IgG1 fusion protein, the genetic construct "ELAM-Rg" published by Walz et al., 1990 was used.
For expression, the plasmid DNA was transfected in COS-7 cells (ATCC) by means of DEAE-dextran (Molecular Biology Methods: see Ausubel, F. M., Brent, R., Kingston, R. E., Moore, D. D., Seidman, J. G., Struhl, K. and Smith, J. A. 1990. Current Protocols in Molecular Biology, John Wiley, New York). Seven days after transfection, the culture supernatant is recovered, freed from cells and cell fragments by centrifugation and transferred to 25 mM HEPES pH 7.0, 0.3 mM PMSF, 0.02% sodium azide and stored at +4° C.
(§3) 1. 96-well microtiter test plates (Nunc Maxisorb) are incubated at room temperature for 2 hours with 100 μl of a goat anti-human IgG antibody (Sigma) diluted (1+100) in 50 mM Tris pH 9.5. After removing the antibody solution washing is carried out once with PBS.
(§4) 2. 150 μl of the blocking buffer are left in the wells at room temperature for 1 hour. The composition of the blocking buffer is: 0.1% gelatin, 1% BSA, 5% calf serum, 0.2 mM PMSF, 0.02% sodium azide. After removing the blocking buffer washing is carried out once with PBS.
(§5) 3. 100 μl each of cell culture supernatant of appropriately transfected and expressing COS cells are pipetted into the wells. Incubation is carried out at room temperature for 2 hours. After removing the cell culture supernatant washing is carried out once with PBS.
(§6) 4. 20 μl of binding buffer are added to the wells. The binding buffer has the composition: 50 mM HEPES, pH 7.5; 100 mM NaCl; 1 mg/ml BSA; 2 mM MgCl2; 1 mM CaCl2; 3 mM MnCl2; 0.02% sodium azide; 0.2 mM PMSF. 5 μl of the test substance are pipetted into this, mixed by swirling the plate and incubated at room temperature for 10 minutes.
(§7) 5. 50 ml of an HL60 cell culture containing 200,000 cells/ml are centrifuged at 350 g for 4 minutes. The pellet is resuspended in 10 ml of RPMI 1640 and the cells are centrifuged again. For labeling the cells, 50 μg of BCECF-AM (Molecular Probes) are dissolved in 5 μl of anhydrous DMSO; 1.5 ml of RPMI 1640 are then added to the BCECF-AM/DMSO solution. The cells are resuspended using this solution and incubated at 37° C. for 30 minutes. After centrifugation at 350 g for 2 minutes, the labeled cell pellet is resuspended in 11 ml of binding buffer and the resuspended cells are distributed into the microtiter plate wells in 100 μl aliquots. The plate is allowed to stand at room temperature for 10 minutes in order to allow the cells to sediment on the bottom of the test plate. In the course of this, the cells have the opportunity to adhere to the coated plastic.
(§8) 6. To stop the test, the microtiter plate is immersed completely in the stop buffer (25 mM tris, pH 7.5; 125 mM NaCl; 0.1% BSA; 2 mM MgCl2; 1 mM CaCl2; 3 mM MnCl2; 0.02% sodium azide) at an angle of 45°. The stop buffer is removed from the wells by inversion and the procedure is repeated a further two times.

The target of the next series is T2, P-Selectin (Homo sapiens, UniProt P16109).
T2 sequence (P16109 42-771): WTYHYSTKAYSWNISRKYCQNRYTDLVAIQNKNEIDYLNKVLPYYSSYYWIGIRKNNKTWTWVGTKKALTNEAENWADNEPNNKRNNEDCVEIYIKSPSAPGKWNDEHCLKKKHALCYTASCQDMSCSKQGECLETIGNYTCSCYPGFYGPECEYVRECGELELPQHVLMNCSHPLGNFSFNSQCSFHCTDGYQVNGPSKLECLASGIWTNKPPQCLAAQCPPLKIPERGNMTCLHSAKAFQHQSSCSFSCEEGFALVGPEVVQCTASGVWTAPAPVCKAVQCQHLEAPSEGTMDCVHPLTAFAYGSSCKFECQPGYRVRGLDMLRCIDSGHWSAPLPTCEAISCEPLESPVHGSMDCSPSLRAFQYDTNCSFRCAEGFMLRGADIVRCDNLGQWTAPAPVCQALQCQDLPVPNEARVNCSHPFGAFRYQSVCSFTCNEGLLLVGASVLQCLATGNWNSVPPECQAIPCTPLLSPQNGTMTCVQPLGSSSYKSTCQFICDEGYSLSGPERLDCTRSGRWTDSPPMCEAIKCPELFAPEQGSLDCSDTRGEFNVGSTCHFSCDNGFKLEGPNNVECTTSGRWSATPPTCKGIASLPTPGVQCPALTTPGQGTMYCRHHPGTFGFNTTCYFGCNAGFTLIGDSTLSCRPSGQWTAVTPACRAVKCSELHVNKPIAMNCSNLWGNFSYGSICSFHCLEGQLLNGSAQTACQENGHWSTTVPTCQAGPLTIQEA
Briefly: Inhibition of HL60 cell adhesion to soluble, recombinant P-selectin (P-selectin-IgG1 fusion protein). It counts as cell-based.
From the text: as §1, §2
Preparation of P-selectin-IgG1
For preparation of the soluble P-selectin-IgG1 fusion protein, the genetic construct "ICD62Rg" published by Aruffo et al., 1991 is used. The further procedure corresponds to the preparation of L-selectin-IgG1 presented under A1.
as §3, §4, §5, §6, §7, §8
7. Measurement of the BCECF-AM-labeled cells firmly adhering to the wells is carried out in a cytofluorimeter (Millipore) at a sensitivity setting of 4, an excitation wavelength of 485/220 nm and an emission wavelength of 530/250 nm.

The subject of series [1] is selectin receptors. To be noted: compared with sialyl-Lewis X; cited from earlier work.
Series [2] in a line: hydrolysis in aqueous solution. It counts as physicochemical. To be noted: elimination of maleic acid, C45 H78 N4 O24 formed.
Series [3] relates to selectin receptors. Briefly: binding to selectin receptors, statements in words.
The test system of series [4] is myocardial reperfusion injuries. To be noted: animal experiments; cited from earlier work.
Series [5] deals with P-selectin-dependent lung injuries. To be noted: animal experiments; cited from earlier work.
The mark [6] stands for this setting: read-out: IC50 E-Selectin; inhibition of HL60 cell adhesion to soluble, recombinant adhesion molecules.
Setting [7] is: read-out: IC50 P-Selectin; inhibition of HL60 cell adhesion to soluble, recombinant adhesion molecules.

Like-named read-outs stand apart in the source and are kept apart here.

Consider `CC(=O)N[C@@H]1[C@@H](O[C@@H]2O[C@@H](C)[C@@H](O)[C@@H](O)[C@@H]2O)[C@H](O[C@@H]2O[C@H](CO)[C@H](O)[C@H](O[C@]3(C(=O)O)C[C@H](O)[C@@H](NC(C)=O)[C@H]([C@H](O)[C@H](O)CO)O3)[C@H]2O)[C@@H](CO)O[C@H]1NC(=O)CCC(CCC(=O)N[C@@H]1O[C@H](CO)[C@@H](O[C@@H]2O[C@H](CO)[C@H](O)[C@H](O[C@]3(C(=O)O)C[C@H](O)[C@@H](NC(C)=O)[C@H]([C@H](O)[C@H](O)CO)O3)[C@H]2O)[C@H](O[C@@H]2O[C@@H](C)[C@@H](O)[C@@H](O)[C@@H]2O)[C@H]1NC(C)=O)(CCC(=O)N[C@@H]1O[C@H](CO)[C@@H](O[C@@H]2O[C@H](CO)[C@H](O)[C@H](O[C@]3(C(=O)O)C[C@H](O)[C@@H](NC(C)=O)[C@H]([C@H](O)[C@H](O)CO)O3)[C@H]2O)[C@H](O[C@@H]2O[C@@H](C)[C@@H](O)[C@@H](O)[C@@H]2O)[C@H]1NC(C)=O)[N+](=O)[O-]` [II-1, tris{2-[N-(5-acetamido-3,5-dideoxy-D-glycero-D-galacto-2-nonulopyranosylate)-(2→3)-(β-D-galactopyranosyl)-(1→4)-[(α-L-fucopyranosyl)-(1→3)]-2-acetamido-1,2-dideoxy-β-D-glucopyranose]amidoethyl}nitro-methane], for which the IC50 on E-Selectin (setting [6]) was 380 µM; on P-Selectin (setting [7]), above 800 µM.

`CC(=O)N[C@H]1[C@H](OCCCCCCNC(=O)CCCCCNC(=O)CCC(CCC(=O)NCCCCCC(=O)NCCCCCCO[C@@H]2O[C@H](CO)[C@@H](O[C@@H]3O[C@H](CO)[C@H](O)[C@H](O[C@]4(C(=O)O)C[C@H](O)[C@@H](NC(C)=O)[C@H]([C@H](O)[C@H](O)CO)O4)[C@H]3O)[C@H](O[C@@H]3O[C@@H](C)[C@@H](O)[C@@H](O)[C@@H]3O)[C@H]2NC(C)=O)(CCC(=O)NCCCCCC(=O)NCCCCCCO[C@@H]2O[C@H](CO)[C@@H](O[C@@H]3O[C@H](CO)[C@H](O)[C@H](O[C@]4(C(=O)O)C[C@H](O)[C@@H](NC(C)=O)[C@H]([C@H](O)[C@H](O)CO)O4)[C@H]3O)[C@H](O[C@@H]3O[C@@H](C)[C@@H](O)[C@@H](O)[C@@H]3O)[C@H]2NC(C)=O)[N+](=O)[O-])O[C@H](CO)[C@@H](O[C@@H]2O[C@H](CO)[C@H](O)[C@H](O[C@]3(C(=O)O)C[C@H](O)[C@@H](NC(C)=O)[C@H]([C@H](O)[C@H](O)CO)O3)[C@H]2O)[C@@H]1O[C@@H]1O[C@@H](C)[C@@H](O)[C@@H](O)[C@@H]1O` [II-3]: the values for the IC50 at E-Selectin (setting [6]) and on P-Selectin (setting [7]) were 400 µM and above 1000 µM, respectively.

For `CCCCCCCCCCCCCCCC(=O)N[C@@H](CSCC(COC(=O)CCCCCCCCCCCCCCC)OC(=O)CCCCCCCCCCCCCCC)C(=O)NCCCCCCO[C@@H]1O[C@H](CO)[C@@H](O[C@@H]2O[C@H](CO)[C@H](O)[C@H](O[C@]3(C(=O)O)C[C@H](O)[C@@H](NC(C)=O)[C@H]([C@H](O)[C@H](O)CO)O3)[C@H]2O)[C@H](O[C@@H]2O[C@@H](C)[C@@H](O)[C@@H](O)[C@@H]2O)[C@H]1NC(C)=O` (some centres unmarked) [Compound I-13], the IC50 at E-Selectin (inhibition of HL60 cell adhesion to soluble, recombinant adhesion molecules; read-out: IC50 E-Selectin) is 20 µM; at P-Selectin (inhibition of HL60 cell adhesion to soluble, recombinant adhesion molecules; read-out: IC50 P-Selectin) it was 100 µM.

Regarding `CC(=O)N[C@@H]1[C@@H](O[C@@H]2O[C@H](CO)[C@H](O)[C@H](O[C@]3(C(=O)O)C[C@H](O)[C@@H](NC(C)=O)[C@H]([C@H](O)[C@H](O)CO)O3)[C@H]2O)[C@H](O[C@@H]2O[C@@H](C)[C@@H](O)[C@@H](O)[C@@H]2O)[C@@H](CO)O[C@H]1O` [sialyl-Lewis A], the “binding to selectin receptors relative to the X type” value with selectin receptors [1] is “comparable affinity”.

`CC(=O)N[C@H]1[C@H](OCCCCCCNC(=O)C2CCC(CNC(=O)/C=C\C(=O)O)CC2)O[C@H](CO)[C@@H](O[C@@H]2O[C@H](CO)[C@H](O)[C@H](O[C@]3(C(=O)O)C[C@H](O)[C@@H](NC(C)=O)[C@H]([C@H](O)[C@H](O)CO)O3)[C@H]2O)[C@@H]1O[C@@H]1O[C@@H](C)[C@@H](O)[C@@H](O)[C@@H]1O` (some centres unmarked): the “hydrolysis in aqueous solution” value in series [2] was “slowly hydrolyzes further in aqueous solution”.

As for “Arg-Gly-Asp-Ala (RGDA; printed: Arg-Gly-Asp-Ala)”, in the series on selectin receptors [3], the “binding of the peptide on its own to selectins” value is on record as “does not bind”.

On to `CC(=O)N[C@@H]1[C@@H](O[C@@H]2O[C@@H](C)[C@@H](O)[C@@H](O)[C@@H]2O)[C@H](O[C@@H]2O[C@H](CO)[C@H](O)[C@H](O[C@]3(C(=O)O)C[C@H](O)[C@@H](NC(C)=O)[C@H]([C@H](O)[C@H](O)CO)O3)[C@H]2O)[C@@H](CO)O[C@H]1O` [SLeX], for which the “use in myocardial reperfusion injuries” value in series [4] was “successfully used”. Besides, in series [5], the “use in P-selectin-dependent lung injuries” value is reported as “successfully used”.

For orientation: IC50 means the concentration needed to halve the response being measured.

The values above are taken from patent US5858994A, “Carbohydrate conjugates as inhibitors of cell adhesion” (priority 1994, dated 1999).
